Results taken from the NIST ThermoML archive (doi:10.1021/je0340809).
± gives the expanded uncertainty stated by the source.

Experiment: xn = mol fraction of the nth substance listed
Settings: 101.3 kPa, Liquid

## CN1CCCC1=O [N-methylpyrrolidone] + O
318.15 K, x2 = 0.8536
  speed of sound: 1674.5 ± 6.7 m/s
  viscosity: 2.117 ± 0.05 mPa·s
318.15 K, x2 = 0.8742
  mass density: 1016.22 ± 0.6 kg/m3
  speed of sound: 1670.7 ± 6.7 m/s
  viscosity: 1.882 ± 0.045 mPa·s
318.15 K, x2 = 0.8849
  mass density: 1014.55 ± 0.59 kg/m3
  speed of sound: 1667.3 ± 6.7 m/s
  viscosity: 1.754 ± 0.042 mPa·s
318.15 K, x2 = 0.8996
  mass density: 1012.06 ± 0.57 kg/m3
  speed of sound: 1660.9 ± 6.7 m/s
  viscosity: 1.576 ± 0.038 mPa·s
318.15 K, x2 = 0.9257
  mass density: 1007.08 ± 0.54 kg/m3
  speed of sound: 1643.6 ± 6.6 m/s
  viscosity: 1.261 ± 0.031 mPa·s
318.15 K, x2 = 0.9368
  mass density: 1004.77 ± 0.53 kg/m3
  speed of sound: 1633.5 ± 6.6 m/s
  viscosity: 1.13 ± 0.028 mPa·s
318.15 K, x2 = 0.9557
  mass density: 1000.59 ± 0.5 kg/m3
  speed of sound: 1611.9 ± 6.5 m/s
  viscosity: 0.928 ± 0.023 mPa·s
318.15 K, x2 = 0.9641
  mass density: 998.66 ± 0.51 kg/m3
  speed of sound: 1600.4 ± 6.5 m/s
  viscosity: 0.845 ± 0.022 mPa·s
318.15 K, x2 = 0.9754
  mass density: 996.013 ± 0.52 kg/m3
  speed of sound: 1582.7 ± 6.5 m/s
  viscosity: 0.747 ± 0.019 mPa·s
318.15 K, x2 = 0.99
  mass density: 992.557 ± 0.55 kg/m3
  speed of sound: 1556.1 ± 6.4 m/s
  viscosity: 0.645 ± 0.017 mPa·s
328.15 K, x2 = 0.0522
  mass density: 1002.19 ± 0.52 kg/m3
  speed of sound: 1451.9 ± 6.1 m/s
  viscosity: 1.124 ± 0.027 mPa·s
328.15 K, x2 = 0.1684
  mass density: 1004.9 ± 0.54 kg/m3
  speed of sound: 1463.8 ± 6.1 m/s
  viscosity: 1.194 ± 0.029 mPa·s
328.15 K, x2 = 0.2465
  mass density: 1006.77 ± 0.55 kg/m3
  speed of sound: 1478.8 ± 6.1 m/s
  viscosity: 1.234 ± 0.03 mPa·s
328.15 K, x2 = 0.3481
  mass density: 1009.34 ± 0.56 kg/m3
  speed of sound: 1504.2 ± 6.2 m/s
  viscosity: 1.357 ± 0.033 mPa·s
328.15 K, x2 = 0.4534
  mass density: 1012.42 ± 0.58 kg/m3
  speed of sound: 1533.2 ± 6.3 m/s
  viscosity: 1.647 ± 0.039 mPa·s
328.15 K, x2 = 0.5018
  mass density: 1013.98 ± 0.59 kg/m3
  speed of sound: 1547.1 ± 6.4 m/s
  viscosity: 1.827 ± 0.043 mPa·s
328.15 K, x2 = 0.5493
  mass density: 1015.5 ± 0.6 kg/m3
  speed of sound: 1561.1 ± 6.4 m/s
  viscosity: 2.011 ± 0.047 mPa·s
328.15 K, x2 = 0.6504
  mass density: 1018.05 ± 0.61 kg/m3
  speed of sound: 1593.5 ± 6.5 m/s
  viscosity: 2.308 ± 0.054 mPa·s
328.15 K, x2 = 0.752
  mass density: 1017.63 ± 0.61 kg/m3
  speed of sound: 1627.4 ± 6.6 m/s
  viscosity: 2.241 ± 0.052 mPa·s
328.15 K, x2 = 0.8536
  mass density: 1010.77 ± 0.57 kg/m3
  speed of sound: 1646.4 ± 6.7 m/s
  viscosity: 1.645 ± 0.039 mPa·s
328.15 K, x2 = 0.8742
  mass density: 1008.28 ± 0.55 kg/m3
  speed of sound: 1645 ± 6.7 m/s
  viscosity: 1.47 ± 0.035 mPa·s
328.15 K, x2 = 0.8849
  mass density: 1006.83 ± 0.54 kg/m3
  speed of sound: 1643.2 ± 6.6 m/s
  viscosity: 1.374 ± 0.033 mPa·s
328.15 K, x2 = 0.8996
  mass density: 1004.66 ± 0.53 kg/m3
  speed of sound: 1639.2 ± 6.6 m/s
  viscosity: 1.24 ± 0.03 mPa·s
328.15 K, x2 = 0.9257
  mass density: 1000.32 ± 0.5 kg/m3
  speed of sound: 1627.2 ± 6.6 m/s
  viscosity: 1.004 ± 0.025 mPa·s
328.15 K, x2 = 0.9368
  mass density: 998.296 ± 0.51 kg/m3
  speed of sound: 1619.9 ± 6.6 m/s
  viscosity: 0.907 ± 0.023 mPa·s
328.15 K, x2 = 0.9557
  mass density: 994.66 ± 0.53 kg/m3
  speed of sound: 1603.9 ± 6.5 m/s
  viscosity: 0.753 ± 0.02 mPa·s
328.15 K, x2 = 0.9641
  mass density: 992.982 ± 0.54 kg/m3
  speed of sound: 1595.2 ± 6.5 m/s
  viscosity: 0.692 ± 0.018 mPa·s
328.15 K, x2 = 0.9754
  mass density: 990.687 ± 0.56 kg/m3
  speed of sound: 1581.7 ± 6.5 m/s
  viscosity: 0.618 ± 0.017 mPa·s
328.15 K, x2 = 0.99
  mass density: 987.705 ± 0.58 kg/m3
  speed of sound: 1561.2 ± 6.4 m/s
  viscosity: 0.541 ± 0.015 mPa·s
338.15 K, x2 = 0.0522
  mass density: 993.182 ± 0.55 kg/m3
  speed of sound: 1410.7 ± 5.9 m/s
  viscosity: 0.987 ± 0.025 mPa·s
338.15 K, x2 = 0.1684
  mass density: 995.706 ± 0.53 kg/m3
  speed of sound: 1422.8 ± 6 m/s
  viscosity: 1.026 ± 0.025 mPa·s
338.15 K, x2 = 0.2465
  mass density: 997.455 ± 0.52 kg/m3
  speed of sound: 1437.4 ± 6 m/s
  viscosity: 1.048 ± 0.026 mPa·s
338.15 K, x2 = 0.3481
  mass density: 999.87 ± 0.51 kg/m3
  speed of sound: 1461.9 ± 6.1 m/s
  viscosity: 1.129 ± 0.028 mPa·s
338.15 K, x2 = 0.4534
  mass density: 1002.78 ± 0.52 kg/m3
  speed of sound: 1490.2 ± 6.2 m/s
  viscosity: 1.332 ± 0.032 mPa·s
338.15 K, x2 = 0.5018
  mass density: 1004.25 ± 0.53 kg/m3
  speed of sound: 1504 ± 6.2 m/s
  viscosity: 1.46 ± 0.035 mPa·s
338.15 K, x2 = 0.5493
  mass density: 1005.71 ± 0.54 kg/m3
  speed of sound: 1518 ± 6.3 m/s
  viscosity: 1.591 ± 0.038 mPa·s
338.15 K, x2 = 0.6504
  mass density: 1008.2 ± 0.56 kg/m3
  speed of sound: 1551 ± 6.4 m/s
  viscosity: 1.799 ± 0.043 mPa·s
338.15 K, x2 = 0.752
  mass density: 1008.09 ± 0.55 kg/m3
  speed of sound: 1587.1 ± 6.5 m/s
  viscosity: 1.74 ± 0.042 mPa·s
338.15 K, x2 = 0.8536
  mass density: 1002.25 ± 0.52 kg/m3
  speed of sound: 1613.3 ± 6.6 m/s
  viscosity: 1.292 ± 0.032 mPa·s
338.15 K, x2 = 0.8742
  mass density: 1000.1 ± 0.5 kg/m3
  speed of sound: 1614.4 ± 6.6 m/s
  viscosity: 1.161 ± 0.029 mPa·s
338.15 K, x2 = 0.8849
  mass density: 998.836 ± 0.51 kg/m3
  speed of sound: 1614.4 ± 6.6 m/s
  viscosity: 1.089 ± 0.027 mPa·s
338.15 K, x2 = 0.8996
  mass density: 996.948 ± 0.52 kg/m3
  speed of sound: 1613 ± 6.6 m/s
  viscosity: 0.99 ± 0.025 mPa·s
338.15 K, x2 = 0.9257
  mass density: 993.171 ± 0.54 kg/m3
  speed of sound: 1602.6 ± 6.5 m/s
  viscosity: 0.813 ± 0.021 mPa·s
338.15 K, x2 = 0.9368
  mass density: 991.416 ± 0.55 kg/m3
  speed of sound: 1602.1 ± 6.5 m/s
  viscosity: 0.74 ± 0.019 mPa·s
338.15 K, x2 = 0.9557
  mass density: 988.261 ± 0.57 kg/m3
  speed of sound: 1591.8 ± 6.5 m/s
  viscosity: 0.627 ± 0.017 mPa·s
338.15 K, x2 = 0.9641
  mass density: 986.808 ± 0.58 kg/m3
  speed of sound: 1585.9 ± 6.5 m/s
  viscosity: 0.58 ± 0.016 mPa·s
338.15 K, x2 = 0.9754
  mass density: 984.827 ± 0.59 kg/m3
  speed of sound: 1576.7 ± 6.4 m/s
  viscosity: 0.524 ± 0.015 mPa·s
338.15 K, x2 = 0.99
  mass density: 982.266 ± 0.61 kg/m3
  speed of sound: 1562.4 ± 6.4 m/s
  viscosity: 0.467 ± 0.013 mPa·s
